Data from patent US12391679B2, “Benzamide-substituted bicyclic imidazo- and pyrazolo-fused -pyridine, -pyrimide, and -pyridazine compounds for treatment of inflammatory diseases” (ONCO3R Therapeutics BV, priority 2019, dated 2025).

Key:
SIK1 = target: T1, SIK1 (Homo sapiens, UniProt P57059); test: ADP-Glo kinase assay, SIK1; assay type: biochemical
T1 construct: purchased Carna Biosciences 02-131
How it was run: (§1)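 Kinase reactions ran 120 min at room temperature after ATP addition to enzyme-substrate mix. Remaining ATP was depleted (40 min) and ADP converted to ATP for luciferase detection (30 min), signal rising with activity. Final 1% DMSO and 10 μM staurosporine served as negative and positive controls.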

SIK2 = target: T2, SIK2 (Homo sapiens, UniProt Q9H0K1); test: ADP-Glo kinase assay, SIK2; assay type: biochemical
T2 construct: purchased ThermoFisher Scientific PV4792
T2 sequence (Q9H0K1 whole entry): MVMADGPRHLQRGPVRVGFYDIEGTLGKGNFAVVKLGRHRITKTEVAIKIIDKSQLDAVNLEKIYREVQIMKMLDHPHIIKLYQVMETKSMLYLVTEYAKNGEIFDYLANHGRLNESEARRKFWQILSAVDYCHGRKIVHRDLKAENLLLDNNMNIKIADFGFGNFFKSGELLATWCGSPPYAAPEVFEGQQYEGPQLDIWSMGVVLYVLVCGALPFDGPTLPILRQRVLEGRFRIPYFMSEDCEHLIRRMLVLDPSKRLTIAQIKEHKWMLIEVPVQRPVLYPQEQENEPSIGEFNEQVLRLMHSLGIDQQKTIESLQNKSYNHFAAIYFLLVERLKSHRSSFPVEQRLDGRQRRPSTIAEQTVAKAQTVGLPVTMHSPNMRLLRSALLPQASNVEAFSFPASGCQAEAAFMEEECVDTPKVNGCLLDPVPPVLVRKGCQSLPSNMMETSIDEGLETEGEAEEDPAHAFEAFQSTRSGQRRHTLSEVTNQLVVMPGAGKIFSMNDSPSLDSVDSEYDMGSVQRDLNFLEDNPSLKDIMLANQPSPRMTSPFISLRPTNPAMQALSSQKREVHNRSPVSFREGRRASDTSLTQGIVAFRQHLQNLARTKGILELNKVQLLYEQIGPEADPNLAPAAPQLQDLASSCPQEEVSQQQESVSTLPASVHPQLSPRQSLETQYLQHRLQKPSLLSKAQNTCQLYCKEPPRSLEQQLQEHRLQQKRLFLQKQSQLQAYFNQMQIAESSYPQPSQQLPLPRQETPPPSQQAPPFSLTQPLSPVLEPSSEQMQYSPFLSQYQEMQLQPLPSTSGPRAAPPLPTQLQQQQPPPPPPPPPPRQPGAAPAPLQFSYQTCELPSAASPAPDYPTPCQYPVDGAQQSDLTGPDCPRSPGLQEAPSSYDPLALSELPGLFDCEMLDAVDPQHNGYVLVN
How it was run: as §1

[1] = test system: LPS-induced TNFα in monocytes; test: Monocytes assay: LPS-triggered TNFα (ELISA); assay type: cell-based, human; details: Homo sapiens, Monocyte, LPS-triggered TNFα inhibition
How it was run: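 TNFα secretion was triggered with 200 ng/mL LPS for 4 h in human blood CD14+ monocytes after 1 h compound pretreatment at 37 °C, with 0.2% final DMSO. Supernatants were analysed by streptavidin-HRP/luminol ELISA, and percentage inhibition at each concentration was derived relative to control wells.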

T1 sequence (P57059 whole entry): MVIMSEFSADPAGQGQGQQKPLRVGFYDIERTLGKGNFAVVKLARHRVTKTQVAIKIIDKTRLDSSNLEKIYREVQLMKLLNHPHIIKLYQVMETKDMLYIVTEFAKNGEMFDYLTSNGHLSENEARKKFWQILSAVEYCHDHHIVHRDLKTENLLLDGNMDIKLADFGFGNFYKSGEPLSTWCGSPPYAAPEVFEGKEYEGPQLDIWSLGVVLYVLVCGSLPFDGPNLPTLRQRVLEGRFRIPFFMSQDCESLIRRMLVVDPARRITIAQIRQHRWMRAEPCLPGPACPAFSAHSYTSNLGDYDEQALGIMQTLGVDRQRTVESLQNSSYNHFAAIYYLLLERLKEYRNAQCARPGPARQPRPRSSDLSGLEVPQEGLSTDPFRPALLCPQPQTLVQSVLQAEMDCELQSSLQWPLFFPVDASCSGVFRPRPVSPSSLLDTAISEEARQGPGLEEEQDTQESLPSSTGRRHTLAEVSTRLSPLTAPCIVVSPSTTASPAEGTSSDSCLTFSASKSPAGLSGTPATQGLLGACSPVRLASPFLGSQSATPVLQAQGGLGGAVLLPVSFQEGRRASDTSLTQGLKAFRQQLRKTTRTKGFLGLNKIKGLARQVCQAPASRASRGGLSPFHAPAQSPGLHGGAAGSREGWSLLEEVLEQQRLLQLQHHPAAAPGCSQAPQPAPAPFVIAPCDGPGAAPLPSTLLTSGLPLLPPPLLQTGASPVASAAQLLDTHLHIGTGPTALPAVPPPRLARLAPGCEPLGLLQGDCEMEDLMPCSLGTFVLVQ

SMILES | IC50 (SIK1) [nM] | IC50 (SIK2) [nM] | EC50 [1] [nM]
COc1cc(-c2cnn3cc(C4(C#N)CC4)ccc23)cc(OC(F)F)c1C(=O)N[C@@H]1C[C@@H]1F [Cpd 235, 4-[6-(1-cyanocyclopropyl)pyrazolo[1,5-a]pyridin-3-yl]-2-(difluoromethoxy)-N-[(1R,2S)-2-fluorocyclopropyl]-6-methoxy-benzamide] | 100 to 500 | 10 to 100 | 0.1 to 100
COc1cc(-c2cnn3cc(C(C)(C)CO)ccc23)cc(OC(F)F)c1C(=O)NC1CC1 [Cpd 236, N-cyclopropyl-2-(difluoromethoxy)-4-[6-(2-hydroxy-1,1-dimethyl-ethyl)pyrazolo[1,5-a]pyridin-3-yl]-6-methoxy-benzamide] | > 500 | > 500 | 100 to 1000
COc1cc(-c2cnn3cc(C4(C#N)CCOCC4)ccc23)cc(OC(F)F)c1C(=O)NC1CC1 [Cpd 237, 4-[6-(4-cyanotetrahydropyran-4-yl)pyrazolo[1,5-a]pyridin-3-yl]-N-cyclopropyl-2-(difluoromethoxy)-6-methoxy-benzamide] | > 500 | > 500 | 100 to 1000
COc1cc(-c2cnn3cc(C4(C#N)CCOCC4)ccc23)cc(OC(F)F)c1C(=O)N[C@@H]1C[C@@H]1F [Cpd 243, 4-[6-(4-cyanotetrahydropyran-4-yl)pyrazolo[1,5-a]pyridin-3-yl]-2-(difluoromethoxy)-N-[(1R,2S)-2-fluorocyclopropyl]-6-methoxy-benzamide] | > 500 | > 500 | 100 to 1000
COc1cc(-c2cnn3cc(C4(C(N)=O)CCC4)ccc23)cc(OC(F)F)c1C(=O)N[C@@H]1C[C@@H]1F [Cpd 254, 4-[6-(1-carbamoylcyclobutyl)pyrazolo[1,5-a]pyridin-3-yl]-2-(difluoromethoxy)-N-[(1R,2S)-2-fluorocyclopropyl]-6-methoxy-benzamide] | > 500 | > 500 | 100 to 1000
COc1cc(-c2cnn3cc(C4(N)CCC4)ccc23)cc(OC(F)F)c1C(=O)N[C@@H]1C[C@@H]1F [Cpd 261, 4-[6-(1-aminocyclobutyl)pyrazolo[1,5-a]pyridin-3-yl]-2-(difluoromethoxy)-N-[(1R,2S)-2-fluorocyclopropyl]-6-methoxy-benzamide] | > 500 | > 500 | 100 to 1000

Other lines, results leading:

IC50 (SIK1) [nM] | IC50 (SIK2) [nM] | EC50 [1] [nM] | SMILES
> 500 | > 500 | 0.1 to 100 | COc1cc(-c2cnn3cc(C(C)(C)CO)ccc23)cc(OC(F)F)c1C(=O)N[C@@H]1C[C@@H]1F [Cpd 242, 2-(difluoromethoxy)-N-[(1R,2S)-2-fluorocyclopropyl]-4-[6-(2-hydroxy-1,1-dimethyl-ethyl)pyrazolo[1,5-a]pyridin-3-yl]-6-methoxy-benzamide]
> 500 | > 500 | 100 to 1000 | COc1cc(-c2cnn3cc(C(C)(C)C#N)ccc23)cc(OC)c1C(=O)N[C@@H]1C[C@@H]1F [Cpd 245, 4-[6-(1-cyano-1-methyl-ethyl)pyrazolo[1,5-a]pyridin-3-yl]-N-[(1R,2S)-2-fluorocyclopropyl]-2,6-dimethoxy-benzamide]
> 500 | > 500 | 100 to 1000 | COc1cc(-c2cnn3cc(C(C)(C)N)ccc23)cc(OC(F)F)c1C(=O)N[C@@H]1C[C@@H]1F [Cpd 256, 4-[6-(1-amino-1-methyl-ethyl)pyrazolo[1,5-a]pyridin-3-yl]-2-(difluoromethoxy)-N-[(1R,2S)-2-fluorocyclopropyl]-6-methoxy-benzamide]
> 500 | 100 to 500 | 100 to 1000 | COc1cc(-c2cnn3cc(C4(O)CCC4)ccc23)cc(OC(F)F)c1C(=O)N[C@@H]1C[C@@H]1F [Cpd 266, 2-(difluoromethoxy)-N-[(1R,2S)-2-fluorocyclopropyl]-4-[6-(1-hydroxycyclobutyl)pyrazolo[1,5-a]pyridin-3-yl]-6-methoxy-benzamide]
> 500 | > 500 | 0.1 to 100 | COc1cc(-c2cnn3cc(C(C)(C)COS(C)(=O)=O)ccc23)cc(OC(F)F)c1C(=O)N[C@@H]1C[C@@H]1F [Cpd 267, [2-[3-[3-(difluoromethoxy)-4-[[(1R,2S)-2-fluorocyclopropyl]carbamoyl]-5-methoxy-phenyl]pyrazolo[1,5-a]pyridin-6-yl]-2-methyl-propyl]methanesulfonate]
> 500 | > 500 | 100 to 1000 | COc1cc(-c2cnn3cc(C(C)(C)CN4CCOCC4)ccc23)cc(OC(F)F)c1C(=O)N[C@@H]1C[C@@H]1F [Cpd 269, 2-(difluoromethoxy)-4-[6-(1,1-dimethyl-2-morpholino-ethyl)pyrazolo[1,5-a]pyridin-3-yl]-N-[(1R,2S)-2-fluorocyclopropyl]-6-methoxy-benzamide]
